{"source": "patent US20250360057A1", "about": "“ENHANCING DENTIN BONDING DURABILITY USING QUATERNARY PYRIDINIUM SALTS” (ADA Science and Research Institute LLC, priority 2022, published 2025)", "format_in_all_cases": "physicochemical", "key": {"[1]": {"test": "Degree of (vinyl) conversion (DC) of cured dental adhesive/resin by FT-IR (ATR)", "settings": "for Degree of Conversion: resin 70 wt % Bis-GMA / 30 wt % TEGDMA with CQ/4E; for change of Degree of Conversion (in words) / decrease of Degree of Conversion / increase of Degree of Conversion: versus resin without additive; for change of Degree of Conversion (in words) / decrease of Degree of Conversion: Bis-GMA/TEGDMA resin; for increase of Degree of Conversion: 70 wt % Bis-GMA / 30 wt % TEGDMA, CQ/4E; for Degree of Conversion (%): approx 0.25 wt % additive; for effect on DC (in words): both adhesives (SB and B6H4)"}, "[2]": {"test": "Glass transition temperature (Tg) / tan δ peak by dynamic mechanical analysis (DMA)", "procedure": "The degree of conversion (DC) and glass transition temperature (Tg) of adhesives and resins with or without the additives (such as Azo-QPS-C16) were measured by Fourier transform infrared (FTIR) spectrometer and dynamic mechanical analyzer (DMA), respectively. The stability against enzymatic challenges of four adhesives (and resins) was evaluated using an atomic force microscopy (AFM)-based method. The adhesives' bonding strength and bonding durability are determined and compared based on shear bond strength (SBS), micro-tensile bond strength (pTBS), and bonding durability under the challenges of thermal cycling.\nThe glass transition temperature (Tg) of adhesives with or without additive were measured by dynamic mechanical analysis (DMA)."}, "[3]": {"target": "T1, pseudocholine esterase from equine serum (PCE) (Equus caballus, UniProt P81908)", "T1 construct": "pseudocholine esterase from equine serum; purchased Sigma C7512; host or cells: equine serum", "T1 sequence (P81908 whole entry)": "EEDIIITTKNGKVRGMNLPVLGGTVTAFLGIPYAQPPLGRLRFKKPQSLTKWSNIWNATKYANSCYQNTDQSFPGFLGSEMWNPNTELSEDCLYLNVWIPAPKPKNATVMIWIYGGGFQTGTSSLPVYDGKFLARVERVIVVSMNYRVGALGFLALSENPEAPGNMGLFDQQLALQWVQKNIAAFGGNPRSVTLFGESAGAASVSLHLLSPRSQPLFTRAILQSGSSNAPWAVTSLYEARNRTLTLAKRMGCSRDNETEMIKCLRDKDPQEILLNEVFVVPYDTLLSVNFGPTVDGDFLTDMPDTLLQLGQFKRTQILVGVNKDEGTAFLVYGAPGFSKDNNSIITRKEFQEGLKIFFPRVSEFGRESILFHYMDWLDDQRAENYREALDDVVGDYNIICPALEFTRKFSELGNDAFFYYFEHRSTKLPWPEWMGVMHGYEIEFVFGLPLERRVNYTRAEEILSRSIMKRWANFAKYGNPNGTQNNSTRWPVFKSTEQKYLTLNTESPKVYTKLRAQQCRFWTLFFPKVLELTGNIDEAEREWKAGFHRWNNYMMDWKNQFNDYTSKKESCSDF", "test": "Biostability: AFM-based step height change (ΔH) under enzymatic challenge", "description": "Various embodiments of the present application can be better understood by reference to the following Examples which are offered by way of illustration. The scope of the present application is not limited to the Examples given herein. The enzymatic challenge measurement method described herein is described in Wang X, Song S, Chen L, Stafford CM, Sun J, Acta Biomater., 2018, 74, 326, and Yamauchi S, Wang X, Egusa H, Sun J. “High-performance dental adhesives containing an ether-based monomer” Journal of Dental Research, 2020, 99, 189, which are both incorporated by reference herein in their entireties.\nBiostability of the dental materials such as resins and adhesives is of critical importance to their durability. These materials may break down in the oral environment, which may be due to enzymatic and/or bacterial challenges, which can result in failure of the restoration and secondary caries. The stability against enzymatic challenges of dental materials including adhesives and resins, with and without additives, was evaluated using an atomic force microscopy (AFM)-based method, described by Wang et al., in “Short-time dental resin biostability and kinetics of enzymatic degradation”, Acta Biomaterialia, Volume 74, 1 Jul. 2018, Pages 326-333, incorporated herein in its entirety. Briefly, this method allows evaluation of materials by assessing the step height (H) and the changes in the step height (ΔH), that are caused by enzymatic exposure. The ΔH values are caused as material exposed to salivary enzymes or the like is removed due to degradation of the exposed material.\nThe stability of SB was compared to the same adhesive incorporating Azo-QPS-C16 as an additive at approximately 0.25 wt %. Samples were prepared according to the method described by Wang, and were exposed to either pseudocholine esterase from equine serum (PCE, Product No. C7512, Sigma, Saint Louis, MO, USA) were reconstituted in saline solution containing 40 mM magnesium chloride and 99 mM of sodium chloride following vender's instruction, or a control solution without PCE for various times up to 72 hours. […] For the SB sample exposed to PCE, the ΔH value increased to about 175 nm. In comparison, the addition of approximately 0.25 wt % Azo-QPS-C16 reduced the ΔH values after 72 hours to about 50 nm and about 60 nm for the control and PCE-exposed samples, respectively, thus showing inclusion of Azo-QPC-C16 in the adhesive improved the stability dramatically."}, "[4]": {"target": "T1, pseudocholine esterase from equine serum (PCE)", "test": "Biostability: AFM-based step height change (ΔH) under enzymatic challenge", "remark": "listed apart in the source"}, "[5]": {"settings": "B6H4, approximately 0.25 wt % additive"}}, "data": [{"smiles": "C=C(C)C(=O)Oc1ccc(/N=N/c2ccncc2)cc1", "note": "[Azo-Py-MA, reference compound]", "values": [{"measurement": "Degree of Conversion", "setting": "[1]; 0.5 wt % additive", "result": 70.2, "unit": "%"}, {"measurement": "change of Degree of Conversion (in words)", "setting": "[1]", "result": "no change"}]}, {"smiles": "Oc1ccc(/N=N/c2ccncc2)cc1", "note": "[Azo-Py-OH, reference compound]", "values": [{"measurement": "Degree of Conversion", "setting": "[1]; 0.5 wt % additive", "result": 68.4, "unit": "%"}, {"measurement": "decrease of Degree of Conversion", "setting": "[1]", "result": 1.8, "unit": "%"}]}, {"smiles": "CC(C)C(=O)Oc1ccc(/N=N/c2ccncc2)cc1", "note": "[Azo-Py-iBu, (E)-4-(pyridin-4-yldiazenyl)phenyl isobutyrate, reference compound]", "values": [{"measurement": "Degree of Conversion", "setting": "[1]; 0.5 wt % additive", "result": 66.7, "unit": "%"}, {"measurement": "decrease of Degree of Conversion", "setting": "[1]", "result": 3.5, "unit": "%"}]}, {"smiles": "C=C(C)C(=O)Oc1ccc(/N=N/c2cc[n+](CC)cc2)cc1.[Br-]", "note": "[Azo-QPS-C2-MA]", "values": [{"measurement": "Degree of Conversion", "setting": "[1]; 0.5 wt % additive", "result": 72.3, "unit": "%"}, {"measurement": "increase of Degree of Conversion", "setting": "[1]; 0.5 wt % additive", "result": 2.1, "unit": "%"}]}, {"smiles": "C=C(C)C(=O)Oc1ccc(/N=N/c2cc[n+](CCCCCCCCCCCCCCCC)cc2)cc1.[Br-]", "note": "[Azo-QPS-C16, (E)-1-hexadecyl-4-((4-(methacryloyloxy)phenyl)diazenyl)-pyridinium bromide]", "values": [{"measurement": "glass transition temperature (Tg)", "setting": "[2]; [5]", "result": "increases"}, {"measurement": "tan δ peak", "setting": "[2]; [5]", "result": "narrowed"}, {"measurement": "tan δ peak", "setting": "[2]; SB, approximately 0.25 wt % additive", "result": "narrowed"}, {"measurement": "ΔH", "setting": "[3]; SB, approximately 0.25 wt % additive, PCE-exposed, after 72 hours", "result": "about 60 nm"}, {"measurement": "ΔH", "setting": "[3]; SB, approximately 0.25 wt % additive, control solution without PCE, after 72 hours", "result": "about 50 nm"}, {"measurement": "ΔH", "setting": "[4]; B6H4 with CQ/4E, approximately 0.25 wt % additive, control, after 72 hours", "result": "about 50 nm"}, {"measurement": "ΔH", "setting": "[4]; B6H4 with CQ/4E, approximately 0.25 wt % additive, exposed to PCE, after 72 hours", "result": "about 70 nm"}, {"measurement": "effect on ΔH values (in words)", "setting": "[4]; adhesives PBNT, SBP, SUP, EBSE and XIV, approximately 0.25 wt % additive versus no additive (FIGS. 8-12)", "result": "decreased the ΔH values"}, {"measurement": "DC (%)", "setting": "[1]; B6H4/CQ/4E, 0.1 wt % additive", "result": "76.9 ± 0.7", "unit": "%"}, {"measurement": "DC (%)", "setting": "[1]; B6H4/CQ/4E, 0.25 wt % additive", "result": "79.5 ± 0.8", "unit": "%"}, {"measurement": "DC (%)", "setting": "[1]; B6H4/CQ/4E, 0.5 wt % additive", "result": "80.5 ± 1.2", "unit": "%"}, {"measurement": "DC (%)", "setting": "[1]; B6H4/CQ/4E, 1.0 wt % additive", "result": "81.3 ± 1.4", "unit": "%"}, {"measurement": "DC (%)", "setting": "[1]; B6H4/CQ/4E, 1.25 wt % additive", "result": "76.2 ± 1.5", "unit": "%"}, {"measurement": "DC (%)", "setting": "[1]; B6H4/CQ/4E, 1.5 wt % additive", "result": "64.4 ± 2.2", "unit": "%"}, {"measurement": "DC (%)", "setting": "[1]; B6H4/CQ/4E, 2.0 wt % additive", "result": "26.0 ± 2.6", "unit": "%"}, {"measurement": "Degree of Conversion (%)", "setting": "[1]; EBSE adhesive", "result": "73.7 ± 0.6", "unit": "%"}, {"measurement": "Degree of Conversion (%)", "setting": "[1]; PBNT adhesive", "result": "66.4 ± 0.7", "unit": "%"}, {"measurement": "Degree of Conversion (%)", "setting": "[1]; SBP adhesive", "result": "70.3 ± 0.5", "unit": "%"}, {"measurement": "Degree of Conversion (%)", "setting": "[1]; SUP adhesive", "result": "72.5 ± 1.0", "unit": "%"}, {"measurement": "DC (%)", "setting": "[1]; Scotchbond Multi-Purpose (SB), 0.1 wt % additive", "result": "76.1 ± 0.8", "unit": "%"}, {"measurement": "DC (%)", "setting": "[1]; Scotchbond Multi-Purpose (SB), 0.25 wt % additive", "result": "78.6 ± 0.9", "unit": "%"}, {"measurement": "DC (%)", "setting": "[1]; Scotchbond Multi-Purpose (SB), 0.5 wt % additive", "result": "79.2 ± 1.1", "unit": "%"}, {"measurement": "DC (%)", "setting": "[1]; Scotchbond Multi-Purpose (SB), 1.0 wt % additive", "result": "79.5 ± 1.4", "unit": "%"}, {"measurement": "DC (%)", "setting": "[1]; Scotchbond Multi-Purpose (SB), 1.25 wt % additive", "result": "75.5 ± 1.5", "unit": "%"}, {"measurement": "DC (%)", "setting": "[1]; Scotchbond Multi-Purpose (SB), 1.5 wt % additive", "result": "55.0 ± 1.4", "unit": "%"}, {"measurement": "DC (%)", "setting": "[1]; Scotchbond Multi-Purpose (SB), 2.0 wt % additive", "result": "12.8 ± 3.1", "unit": "%"}, {"measurement": "Degree of Conversion (%)", "setting": "[1]; XIV adhesive", "result": "74.2 ± 1.1", "unit": "%"}, {"measurement": "effect on DC (in words)", "setting": "[1]; approximately 0.1 wt % additive", "result": "enhances the DC of both adhesives"}, {"measurement": "effect on DC (in words)", "setting": "[1]; more than approximately 1.25 wt % additive (about 1.5 or 2 wt %)", "result": "significant DC decrease"}, {"measurement": "Degree of Conversion", "setting": "[1]; 0.5 wt % additive", "result": 74.5, "unit": "%"}, {"measurement": "increase of Degree of Conversion", "setting": "[1]; 0.5 wt % additive", "result": 4.3, "unit": "%"}]}, {"smiles": "CC(C)C(=O)Oc1ccc(/N=N/c2cc[n+](CCCCCBr)cc2)cc1.[Br-]", "note": "[Br-C6-Azo-Py-iBu]", "values": [{"measurement": "Degree of Conversion", "setting": "[1]; 0.5 wt % additive", "result": 75.1, "unit": "%"}, {"measurement": "increase of Degree of Conversion", "setting": "[1]; 0.5 wt % additive", "result": 4.9, "unit": "%"}]}, {"smiles": "C=C(C)C(=O)OCCCCCC[n+]1ccc(/N=N/c2ccc(OC(=O)C(C)C)cc2)cc1.[Br-]", "note": "[MA-C6-Azo-Py-iBu]", "values": [{"measurement": "ΔH", "setting": "[3]; Scotchbond (SB), PCE (FIG. 7)", "result": "~70", "unit": "nm"}, {"measurement": "ΔH", "setting": "[3]; Scotchbond (SB), control (FIG. 7)", "result": "approximately 50 nm"}, {"measurement": "ΔH", "setting": "[4]; B6H4, approximately 0.25 wt % additive, PCE (FIG. 6)", "result": "~65", "unit": "nm"}, {"measurement": "ΔH", "setting": "[4]; B6H4, approximately 0.25 wt % additive, control (FIG. 6)", "result": "approximately 50 nm"}, {"measurement": "Degree of Conversion", "setting": "[1]; 0.5 wt % additive", "result": 74.9, "unit": "%"}, {"measurement": "increase of Degree of Conversion", "setting": "[1]; 0.5 wt % additive", "result": 4.7, "unit": "%"}]}, {"smiles": "C=C(C)C(=O)OCCNC(=O)OCCCCCCCC[n+]1ccc(/N=N/c2ccc(OC(=O)C(C)C)cc2)cc1.[Br-]", "note": "[MA-CB13-Azo-QPS-iBu]", "values": [{"measurement": "biostability of the adhesives (in words)", "setting": "[3]; added to dental adhesives", "result": "has not been demonstrated to improve the biostability"}, {"measurement": "Degree of Conversion", "setting": "[1]; 0.5 wt % additive", "result": 70.7, "unit": "%"}, {"measurement": "increase of Degree of Conversion", "setting": "[1]; 0.5 wt % additive", "result": 0.5, "unit": "%"}]}, {"smiles": "c1ccc(/N=N/c2ccccc2)cc1", "note": "[reference compound]", "values": [{"measurement": "change of Degree of Conversion (in words)", "setting": "[1]", "result": "No change"}]}, {"smiles": "c1cc(N=Nc2ccncc2)ccn1", "note": "[reference compound]", "values": [{"measurement": "change of Degree of Conversion (in words)", "setting": "[1]", "result": "No change"}]}, {"smiles": "c1cc(CCc2ccncc2)ccn1", "note": "[reference compound]", "values": [{"measurement": "change of Degree of Conversion (in words)", "setting": "[1]", "result": "No change"}]}]}
